Experimental data as given in US11166941B2, “Synergistic nutritional compositions for enhancing ATP efficiency” (CELAGENEX RESEARCH (INDIA) PVT. LTD., priority 2020, dated 2021).

What was measured:
[1] = cell studies, background statement; cited from earlier work
HepG2 cells = experiment: Estimation of cellular respiration by measuring cellular ATP levels (kit method) in HepG2 cells; format: cell-based, Human; details: for % ATP Enhancement / ATP enhancement fold: over control; for Cellular ATP Conc.: HepG2, 2 hours treatment
Method: The test substances were evaluated for their in vitro effect on cellular energy by measuring cellular ATP levels in human Hepatocytes (HepG2) cell line. In the given experimental conditions, treatment with the test substances improved cellular ATP levels in vitro [J Immunol Methods; 1986; 89: 271-277]; [Proc Nal Acad Sci USA; 2009; 106: 15651-15656].
For test substance ABC, the test substances were combined in the weight ratio of 1:0.05:0.01. A weight of about 10 mg of ABC was dissolved in 100 μl of DMSO and the volume was made up to 1 ml with DMEM-HG (Dulbecco's Modified Eagle Medium High Glucose). For individual test substances A, B and C, about 10 mg of all the test substances were weighed and separately dissolved with 100 μl of DMSO and volume was made up with DMEM-HG supplemented with 2% inactivated FBS to obtain a stock solution of 1 mg/ml concentration. The samples were further sterilized by 0.22 syringe filtration. Serial two-fold dilutions were prepared from the stock for carrying out further studies.
Cell line was cultured in DMEM-HG supplemented with 10% inactivated Fetal Bovine Serum (FBS), penicillin (100 IU/ml), streptomycin (100 μg/ml) and amphotericin B (5 μg/ml) in a humidified atmosphere of 5% CO2 at 37° C. until confluent. The cells were dissociated with TPVG solution (0.2% trypsin, 0.02% EDTA, 0.05% glucose in PBS). The stock cultures were grown in 25 cm^2 culture flasks and all experiments were carried out in 96 well microtitre plates (Tarsons India Pvt. Ltd., Kolkata, India).
HepG2 cells were trypsinized from stock culture flasks and the cell count was adjusted to 1.0×10^5 cells/ml to obtain a cell suspension that was seeded into a 6-well plate. After 24 hours, cell cultures achieved 70-80% confluency and were treated with different nontoxic concentrations of test substances. After 2 hours of treatment, the plate was washed with phosphate buffer saline. The cellular ATP level determination was performed according to the instructions given in the kit manual (SIGMA, #MAK190). At the end of the experiment, the optical density was read at 570 nm using microplate reader. From the absorbance values, the cellular ATP levels were estimated using kit protocol and the concentration of cellular ATP in treated groups were determined in comparison to the control groups.

[2] = system: HepG2 (Human Hepatocyte) cell line; experiment: In vitro cytotoxicity by MTT assay on HepG2 cell line; format: cell-based; details: 72 hours; for IC50 / inhibition at 62.5 µg/mL / inhibition at 125 µg/mL / inhibition at 250 µg/mL / inhibition at 500 µg/mL / inhibition at 1000 µg/mL: Homo sapiens; for IC50: read-out: CTC 50
Method: The in vitro cytotoxicity was performed on HepG2 (Human Hepatocyte) cell line to find a non-toxic concentration of the test substances by MTT assay and the potential of test substances to increase the cellular ATP levels was evaluated by kit method. For test substance ABC, the test substances were combined in the weight ratio of 1:0.05:0.01. A weight of about 10 mg of ABC was dissolved in 100 μl of DMSO and the volume was made up to 1 ml with DMEM-HG (Dulbecco's Modified Eagle Medium High Glucose). For individual test substances A, B and C, about 10 mg of all the test substances were weighed and separately dissolved with 100 μl of DMSO and volume was made up with DMEM-HG supplemented with 2% inactivated FBS to obtain a stock solution of 1 mg/ml concentration. The samples were further sterilized by 0.22 syringe filtration. Serial two-fold dilutions were prepared from the stock for carrying out further studies. Cell line was cultured in DMEM-HG supplemented with 10% inactivated Fetal Bovine Serum (FBS), penicillin (100 IU/ml), streptomycin (100 μg/ml) and amphotericin B (5 μg/ml) in a humidified atmosphere of 5% CO2 at 37° C. until confluent. The cells were dissociated with TPVG solution (0.2% trypsin, 0.02% EDTA, 0.05% glucose in PBS). The stock cultures were grown in 25 cm^2 culture flasks and all experiments were carried out in 96 well microtitre plates (Tarsons India Pvt. Ltd., Kolkata, India). The monolayer cell culture was trypsinized and the cell count was adjusted to 1.0×10^5 cells/ml using DMEM-HG containing 10% FBS. To each well of the 96 well microtitre plate, 0.1 ml of the diluted cell suspension was added. After 24 hours, when a partial monolayer was formed, the supernatant was flicked off, the monolayer was washed once with medium and 100 μl of different concentrations of test substances were added. The plate was then incubated at 37° C. for 72 hours in a 5% CO2 atmosphere, and microscopic examination was carried out with observations being noted at a 24-hour interval. After 72 hours of incubation, the drug solutions in the wells were discarded and 50 μl of MTT in PBS was added to each well. The plate was gently shaken and incubated for 3 hours at 37° C. in a 5% CO2 atmosphere. The supernatant was removed and 100 μl of 2-propanol was added and the plate was gently shaken to solubilize the formed formazan. The absorbance was measured using a microplate reader at a wavelength of 540 nm. The percentage growth inhibition was calculated using the standard formula. The concentration of test substances needed to inhibit the growth of the cell by 50% i.e., CTC50 values were generated from the dose-response curves.

[3] = concentration inhibiting cell growth by 50%

Row | Compound | enhancement of cellular ATP levels over the control (in words) (HepG2 cells; HepG2, 500 μg/ml) | % ATP Enhancement (HepG2 cells; HepG2, 500 μg/ml) | ATP enhancement fold (HepG2 cells; HepG2, 500 μg/ml) | IC50 [2, 3] | inhibition at 62.5 µg/mL ([2]; test conc. 62.5 μg/ml) | inhibition at 125 µg/mL ([2]; test conc. 125 μg/ml) | inhibition at 250 µg/mL ([2]; test conc. 250 μg/ml) | inhibition at 500 µg/mL ([2]; test conc. 500 μg/ml) | inhibition at 1000 µg/mL ([2]; test conc. 1000 μg/ml) | further results
1 | O=C(O)CC(=O)C(=O)O [oxaloacetate] |  |  |  |  |  |  |  |  |  | increase muscular endurance [1]: up to 10%
2 | O=C(O)CCCC[C@@H]1SC[C@@H]2NC(=O)N[C@@H]21 [D-Biotin (B), Biotin] | No significant enhancement | 22% | 1.11 fold | > 1000 µg/mL | 6.13 ± 3.48% | 25.1 ± 0.81% | 31.2 ± 1.17% | 42.9 ± 1.29% | 47.6 ± 1.45% | Cellular ATP Conc. (HepG2 cells; 500 μg/ml, listed as B): 6.05 ± 0.33 mM; Cellular ATP Conc. (HepG2 cells; 500 μg/ml, listed as Biotin (B)): 6.05 ± 0.33 mM
3 | OO [Composition H2O2, H2O2, reference compound] |  |  |  |  |  |  |  |  |  | ATP enhancement fold (HepG2 cells; HepG2, 20 μM): 0.67 fold; Cellular ATP Conc. (HepG2 cells; 20 μM): 1.97 ± 0.45 mM
4 | manganese (II) sulphate monohydrate [Manganese-Sulphate (C)] | No significant enhancement | 00% | 1.00 fold |  |  |  |  |  |  | Cellular ATP Conc. (HepG2 cells; 500 μg/ml, listed as C, sulphate monohydrate): 4.92 ± 0.13 mM; Cellular ATP Conc. (HepG2 cells; 500 μg/ml, listed as Manganese sulphate (C), sulphate monohydrate): 4.92 ± 0.13 mM; CTC 50 [2, 3]: 558.91 ± 6.22 µg/mL; % Inhibition ([2]; test conc. 62.5 μg/ml): 30.00 ± 0.54%; % Inhibition ([2]; test conc. 125 μg/ml): 35.54 ± 0.47%; % Inhibition ([2]; test conc. 250 μg/ml): 42.44 ± 0.81%; % Inhibition ([2]; test conc. 500 μg/ml): 48.75 ± 0.18%; % Inhibition ([2]; test conc. 1000 μg/ml): 59.35 ± 0.63%
5 | O=C(O)CC(=O)C(=O)O [Stabilized Oxaloacetate (A), Oxaloacetic acid] | No significant enhancement | 10% | 1.09 fold | > 1000 µg/mL | 10.7 ± 0.84% | 16.6 ± 0.82% | 23.8 ± 2.25% | 34.4 ± 2.2% | 40.4 ± 1.22% | Cellular ATP Conc. (HepG2 cells; 500 μg/ml): 5.42 ± 0.25 mM; Cellular ATP Conc. (HepG2 cells; 500 μg/ml, listed as Oxaloacetic acid (A)): 5.42 ± 0.25 mM
6 | Oc1ccc(C=Cc2cc(O)cc(O)c2)cc1 [Resveratrol, reference compound] |  |  |  |  |  |  |  |  |  | % ATP Enhancement (HepG2 cells; HepG2, 100 μg/ml): 13%; ATP enhancement fold (HepG2 cells; HepG2, 100 μg/ml): 1.09 fold; Cellular ATP Conc. (HepG2 cells; 100 μg/ml): 5.56 ± 0.37 mM
